Here are results for 33 compounds from patent US8906904B2, “Alkoxy pyrazoles as soluble guanylate cyclase activators” (Boehringer Ingelheim International GmbH, priority 2012, dated 2014).

The target in data set [1] is T1, human soluble guanylate cyclase alpha 1 and beta 1 subunits (sGC) (Homo sapiens, UniProt Q02108+Q02153).
T1 construct: expressed in transfected cells; host or cells: Chinese hamster ovary (CHO) cells, stably transfected
T1 sequence (Q02108 1-690): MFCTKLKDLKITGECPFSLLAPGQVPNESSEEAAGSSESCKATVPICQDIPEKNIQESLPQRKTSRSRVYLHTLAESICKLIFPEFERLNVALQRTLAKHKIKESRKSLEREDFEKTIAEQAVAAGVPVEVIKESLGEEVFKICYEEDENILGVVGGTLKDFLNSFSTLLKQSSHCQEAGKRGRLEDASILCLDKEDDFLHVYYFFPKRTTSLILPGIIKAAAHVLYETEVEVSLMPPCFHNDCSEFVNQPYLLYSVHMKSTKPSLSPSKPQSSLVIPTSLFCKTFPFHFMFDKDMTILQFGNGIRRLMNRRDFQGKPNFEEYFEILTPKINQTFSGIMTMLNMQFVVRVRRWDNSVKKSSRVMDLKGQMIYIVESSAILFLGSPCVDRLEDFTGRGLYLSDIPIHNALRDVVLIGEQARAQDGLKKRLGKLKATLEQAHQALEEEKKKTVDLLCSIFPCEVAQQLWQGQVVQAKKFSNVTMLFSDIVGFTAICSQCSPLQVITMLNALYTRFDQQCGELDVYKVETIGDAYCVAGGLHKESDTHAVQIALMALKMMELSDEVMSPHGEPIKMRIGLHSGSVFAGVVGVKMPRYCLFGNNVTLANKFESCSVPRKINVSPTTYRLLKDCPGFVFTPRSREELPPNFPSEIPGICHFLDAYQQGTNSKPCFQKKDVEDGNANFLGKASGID
T1 sequence (Q02153 1-619): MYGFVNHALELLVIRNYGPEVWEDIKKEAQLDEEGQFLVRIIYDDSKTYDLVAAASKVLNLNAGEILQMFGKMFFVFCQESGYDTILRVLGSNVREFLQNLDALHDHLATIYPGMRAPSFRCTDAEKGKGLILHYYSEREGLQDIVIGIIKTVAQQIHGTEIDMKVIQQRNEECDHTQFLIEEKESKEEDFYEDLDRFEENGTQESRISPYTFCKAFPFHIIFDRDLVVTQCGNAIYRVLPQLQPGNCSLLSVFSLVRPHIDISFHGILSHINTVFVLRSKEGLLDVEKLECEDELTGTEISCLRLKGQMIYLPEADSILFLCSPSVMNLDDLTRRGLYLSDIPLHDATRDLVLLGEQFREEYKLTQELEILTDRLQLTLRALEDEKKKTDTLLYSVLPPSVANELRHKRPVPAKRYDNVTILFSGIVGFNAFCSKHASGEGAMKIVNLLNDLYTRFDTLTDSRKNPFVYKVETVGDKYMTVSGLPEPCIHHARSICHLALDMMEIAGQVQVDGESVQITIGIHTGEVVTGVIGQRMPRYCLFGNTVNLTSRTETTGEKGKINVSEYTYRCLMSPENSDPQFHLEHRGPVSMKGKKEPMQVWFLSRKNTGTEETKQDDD
Kind of data set: sGC cellular activator assay (cGMP, HTRF). It counts as cell-based. The following applies: CHO cells stably expressing human sGC alpha 1/beta 1, preincubated with 40 microM ODQ; cGMP readout; assay run with and without 50% human serum, Table 2 does not say which. In short, it runs like this: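 First, CHO-sGC (human α1β1) cells get 1 h ODQ at 40 microM with IBMX and 0.1% BSA. Finally, cGMP is quantified by HTRF and EC50 computed.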
(Time-resolved FRET reads energy transfer from a long-lived donor to a nearby acceptor.)

Data set [2] is described as follows: human liver microsome (HLM) metabolic stability assay. It counts as in vitro ADME. The settings on record: human liver microsomes; % hepatic blood flow calculated from t1/2. In a few lines:
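Compounds at 1 uM incubated with human liver microsomes plus NADPH at 37° C., sampled at 0, 5, 15, 30 and 60 min into cold acetonitrile and quantified by LC/MS/MS. t½ from the slope of ln % remaining vs time; CLint, CLh and % Qh derived from it (n=1).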

Broadly, the EC50 is the concentration at which the effect is half-maximal. A low value points to an effect from little substance.

On to `CCOc1c(C(=O)O)cnn1-c1cccc(-c2cccc(C)c2OCc2ccc3c(c2C)CCN(CC2COCCO2)C3)n1` (stereo in doubt) [Compound 185, 1-{6-[2-(2-(S)-1-[1,4]Dioxan-2-ylmethyl-5-methyl-1,2,3,4-tetrahydro-isoquinolin-6-ylmethoxy)-3-methyl-phenyl]-pyridin-2-yl}-5-ethoxy-1H-pyrazole-4-carboxylic acid], for which, in data set [1], it took 30 nM to reach a half-maximal effect (EC50). In addition, the “HLM (% Qh)” value in data set [2] is recorded as less than 24 % Qh.

`COc1c(C(=O)O)cnn1-c1cccc(-c2cccc(C)c2OCc2ccc3c(c2)CCN(C2CCOC2)C3)n1` (stereo not drawn) [Compound 15] displayed a concentration giving a half-maximal response (EC50) in data set [1] of 28 nM. The “HLM (% Qh)” value in data set [2] is less than 24 % Qh.

In data set [1], `COc1c(C(=O)O)cnn1-c1cccc(-c2cccc(C)c2OCc2ccc3c(c2C)CCN(C2COC2)C3)n1` [Compound 16] gave an EC50 of 23 nM. Moreover, the “HLM (% Qh)” value in data set [2] is reported as less than 24 % Qh.

Compound `COc1c(C(=O)O)cnn1-c1cccc(-c2cccc(C)c2OCc2ccc3c(c2Cl)CCN(C2COC2)C3)n1` [Compound 17] gave a concentration giving a half-maximal response (EC50) in data set [1] of 18 nM. Also, the “HLM (% Qh)” value in data set [2] is recorded as 31 % Qh.

Take `COc1c(C(=O)O)cnn1-c1cccc(-c2cccc(C)c2OCc2ccc3c(c2Cl)CCN(C2CCOCC2)C3)n1` [Compound 18]: the EC50 in data set [1] came out at 8 nM. In data set [2], the “HLM (% Qh)” value was less than 24 % Qh.

`COc1c(C(=O)O)cnn1-c1cccc(-c2cccc(C)c2OCc2ccc3c(c2Cl)CCN(CC2(C)COC2)C3)n1` [Compound 19] showed a concentration giving a half-maximal response (EC50) in data set [1] of 17 nM. For the same compound, the “HLM (% Qh)” value in data set [2] is 29 % Qh.

Turning to `COc1c(C(=O)O)cnn1-c1cccc(-c2cccc(C)c2OCc2ccc3c(c2Cl)CCN(C2CCC2)C3)n1` [Compound 20], it took 24 nM to reach a half-maximal effect in data set [1] (EC50). The “HLM (% Qh)” value in data set [2] is listed as 38 % Qh.

The compound `COc1c(C(=O)O)cnn1-c1cccc(-c2cccc(C)c2OCc2ccc3c(c2Cl)CCN(CC(C)(C)C)C3)n1` [Compound 21] yielded an EC50 in data set [1] of 17 nM. Further, the “HLM (% Qh)” value in data set [2] was less than 24 % Qh.

Take `COc1c(C(=O)O)cnn1-c1cccc(-c2cccc(C)c2OCc2ccc3c(c2Cl)CCN(C2CCOC2)C3)n1` (stereo not drawn) [Compound 22]: the concentration for a half-maximal effect (EC50) in data set [1] was 14 nM. The “HLM (% Qh)” value in data set [2] is 33 % Qh.

In the case of `COCC(C)N1CCc2cc(COc3c(C)cccc3-c3cccc(-n4ncc(C(=O)O)c4OC)n3)ccc2C1` (stereo not drawn) [Compound 23], in data set [1], the EC50 stood at 52 nM. In data set [2], the “HLM (% Qh)” value is reported as less than 24 % Qh.

With `COc1c(C(=O)O)cnn1-c1cccc(-c2cccc(C)c2OCc2ccc3c(c2)CCN(CC2CC2)C3)n1` [Compound 24], in data set [1], the EC50 worked out at 54 nM. Moreover, in data set [2], the “HLM (% Qh)” value was less than 24 % Qh.

In data set [1], `COc1c(C(=O)O)cnn1-c1cccc(-c2cccc(C)c2OCc2ccc3c(c2)CCN(CC2CCC2)C3)n1` [Compound 25] showed an EC50 of 16 nM. In addition, the “HLM (% Qh)” value in data set [2] is 29 % Qh.

The compound `COc1c(C(=O)O)cnn1-c1cccc(-c2cccc(C)c2OCc2ccc3c(c2)CCN(CC2CC(F)(F)C2)C3)n1` [Compound 26] registered an EC50 in data set [1] of 5 nM. The “HLM (% Qh)” value in data set [2] is recorded as 29 % Qh.

`COc1c(C(=O)O)cnn1-c1cccc(-c2cccc(C)c2OCc2ccc3c(c2C)CCN(C2CCOCC2)C3)n1` [Compound 27] showed a concentration giving a half-maximal response (EC50) in data set [1] of 14 nM. Moreover, in data set [2], the “HLM (% Qh)” value is less than 24 % Qh.

Consider `COc1c(C(=O)O)cnn1-c1cccc(-c2cccc(C)c2OCc2ccc3c(c2C)CCN(CC2(C)COC2)C3)n1` [Compound 28], for which a half-maximal effect in data set [1] (EC50) was put at 13 nM. Further, the “HLM (% Qh)” value in data set [2] is given as less than 24 % Qh.

`COc1c(C(=O)O)cnn1-c1cccc(-c2cccc(C)c2OCc2ccc3c(c2C)CCN(CC2CC(F)(F)C2)C3)n1` [Compound 29] displayed a concentration for a half-maximal effect (EC50) in data set [1] of 3.5 nM. For the same compound, the “HLM (% Qh)” value in data set [2] is on record as 28 % Qh.

With `COc1c(C(=O)O)cnn1-c1cccc(-c2cc(C)cc(C)c2OCc2ccc3c(c2C)CCN(C2CCOCC2)C3)n1` [Compound 180], in data set [1], a half-maximal response (EC50) required 28 nM. Also, in data set [2], the “HLM (% Qh)” value is reported as less than 24 % Qh.

`COc1c(C(=O)O)cnn1-c1cccc(-c2cc(C)cc(C)c2OCc2ccc3c(c2)CCN(C2CCOCC2)C3)n1` [Compound 181]: the 50% effective concentration (EC50) in data set [1] was determined as 62 nM. The “HLM (% Qh)” value in data set [2] is less than 24 % Qh.

`COc1ccc(OCc2ccc3c(c2C)CCN(C2CCOCC2)C3)c(-c2cccc(-n3ncc(C(=O)O)c3OC)n2)c1` [Compound 182] had an EC50 in data set [1] of 370 nM. In data set [2], the “HLM (% Qh)” value is recorded as less than 24 % Qh.

The compound `COc1c(C(=O)O)cnn1-c1cccc(-c2cccc(C)c2OCc2ccc3c(c2C)CCN(C2CCOCC2)CC3)n1` [Compound 184] returned an EC50 in data set [1] of 12 nM. Also, in data set [2], the “HLM (% Qh)” value is recorded as less than 24 % Qh.

In the case of `COc1c(C(=O)O)cnn1-c1cccc(-c2cccc(C)c2OCc2cc(C)c3c(c2)CCN(C2COC2)C3)n1` [Compound 186], a half-maximal effect in data set [1] (EC50) was put at 16 nM. Also, in data set [2], the “HLM (% Qh)” value is less than 24 % Qh.

Compound `COc1c(C(=O)O)cnn1-c1cccc(-c2cccc(C)c2OCc2ccc3c(c2)CCN(C[C@@H]2CCOC2)C3)n1` [Compound 188] came in with a concentration for a half-maximal effect (EC50) in data set [1] of 8.6 nM. In addition, in data set [2], the “HLM (% Qh)” value is recorded as less than 24 % Qh.

`CCOc1c(C(=O)O)cnn1-c1cccc(-c2cccc(C)c2OCc2ccc3c(c2C)CCN(C[C@@H]2CCOC2)C3)n1` [Compound 189] showed an EC50 in data set [1] of 12 nM. Further, the “HLM (% Qh)” value in data set [2] is 26 % Qh.

As for `CCOc1c(C(=O)O)cnn1-c1cccc(-c2cccc(C)c2OCc2ccc3c(c2C)CCN(CC2(C)COC2)CC3)n1` [Compound 190], in data set [1], the EC50 stood at 23 nM. Further, the “HLM (% Qh)” value in data set [2] was 43 % Qh.

Compound `COc1c(C(=O)O)cnn1-c1cccc(-c2cccc(C)c2OCc2ccc3c(c2C)CCN(C[C@@H]2CCOC2)C3)n1` [Compound 191] came in with an EC50 in data set [1] of 3.3 nM. Moreover, the “HLM (% Qh)” value in data set [2] was less than 24 % Qh.

Turning to `CCOc1c(C(=O)O)cnn1-c1cccc(-c2cccc(C)c2OCc2ccc3c(c2C)CCN(C[C@H]2CCOC2)C3)n1` [Compound 193], in data set [1], the 50% effective concentration (EC50) was 12 nM. Besides, the “HLM (% Qh)” value in data set [2] was less than 24 % Qh.

On to `CCOc1c(C(=O)O)cnn1-c1cccc(-c2cccc(C)c2OCc2ccc3c(c2C)CCN(C2CCOCC2)C3=O)n1` [Compound 194], for which the response in data set [1] was half-maximal at 87 nM (EC50). In addition, the “HLM (% Qh)” value in data set [2] is less than 24 % Qh.

For `CCOc1c(C(=O)O)cnn1-c1cccc(-c2cccc(C)c2OCc2cc(C)c3c(c2)CCN([C@@H]2CCCOC2)C3)n1` [Compound 195], the EC50 in data set [1] stood at 4.7 nM. The “HLM (% Qh)” value in data set [2] is recorded as less than 24 % Qh.

`CCOc1c(C(=O)O)cnn1-c1cccc(-c2cccc(C)c2OCc2ccc3c(c2C)CCN(C(C)COC)CC3)n1` (stereo not drawn) [Compound 196] yielded an EC50 in data set [1] of 13 nM. For the same compound, the “HLM (% Qh)” value in data set [2] is given as less than 24 % Qh.

Turning to `CCOc1c(C(=O)O)cnn1-c1cccc(-c2cccc(C)c2OCc2cc(C)c3c(c2)CCN([C@H]2CCCOC2)C3)n1` [Compound 197], in data set [1], it took 19 nM to reach a half-maximal effect (EC50). Moreover, the “HLM (% Qh)” value in data set [2] is less than 24 % Qh.

In turn, `COc1c(C(=O)O)cnn1-c1cccc(-c2cccc(C)c2OCc2ccc3c(c2C)CCN(C[C@@H]2CCCCO2)C3)n1` [Compound 198] yielded an EC50 in data set [1] of 5.3 nM. Moreover, the “HLM (% Qh)” value in data set [2] is less than 24 % Qh.

The compound `COc1c(C(=O)O)cnn1-c1cccc(-c2cccc(C)c2OCc2ccc3c(c2C)CCN(C[C@H]2CCCCO2)C3)n1` [Compound 199] returned an EC50 in data set [1] of 9 nM. Moreover, the “HLM (% Qh)” value in data set [2] is given as less than 24 % Qh.

In data set [1], `CCOc1c(C(=O)O)cnn1-c1cccc(-c2cccc(C)c2OCc2cc(C)c3c(c2)CCN(CC2(C)COC2)C3)n1` [Compound 200] yielded a 50% effective concentration (EC50) of 20 nM. The “HLM (% Qh)” value in data set [2] is listed as 40 % Qh.
